Results published in PubChem BioAssay AID330 (DTP/NCI, 2004).
“And” between values parts separate entries of the source, which are not always exact repeats. Equal entries are not always repeated. Inconclusive results and toxic doses are left out.

Test system: P388 leukemia ip, CD2F1 mice, survival T/C
Experiment: NCI In Vivo Anticancer Drug Screen. Data for tumor model P388 Leukemia (intraperitoneal) in CD2F1 (CDF1) mice
Settings: endpoint: median survival time, higher = longer survival
Summary of the method: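 Mice carrying the transplanted tumor received test compound or vehicle. Survival was recorded in each group, and the value is the treated-group measurement divided by that of the vehicle-treated control group.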

[1] = dose: 50.0 mg/kg/injection, schedule: Q01DX009 (ip), vehicle: saline
[2] = dose: 50.0 mg/kg/injection, schedule: Q01DX005 (ip), vehicle: saline with Tween-80
[3] = dose: 100.0 mg/kg/injection, schedule: Q01DX005 (ip), vehicle: saline with Tween-80
[4] = dose: 200.0 mg/kg/injection, schedule: Q01DX005 (ip), vehicle: saline with Tween-80
[5] = dose: 60.0 mg/kg/injection, schedule: Q01DX005 (ip), vehicle: Klucel (hydroxypropylcellulose) (HPC)
[6] = dose: 120.0 mg/kg/injection, schedule: Q01DX005 (ip), vehicle: Klucel (hydroxypropylcellulose) (HPC)
[7] = dose: 240.0 mg/kg/injection, schedule: Q01DX005 (ip), vehicle: Klucel (hydroxypropylcellulose) (HPC)
[8] = dose: 50.0 mg/kg/injection, schedule: Q01DX009 (ip), vehicle: saline with Tween-80
[9] = dose: 100.0 mg/kg/injection, schedule: Q01DX009 (ip), vehicle: saline with Tween-80
[10] = dose: 25.0 mg/kg/injection, schedule: Q01DX009 (ip), vehicle: Klucel (hydroxypropylcellulose) (HPC)
[11] = dose: 50.0 mg/kg/injection, schedule: Q01DX009 (ip), vehicle: Klucel (hydroxypropylcellulose) (HPC)
[12] = dose: 100.0 mg/kg/injection, schedule: Q01DX009 (ip), vehicle: Klucel (hydroxypropylcellulose) (HPC)
[13] = dose: 60.0 mg/kg/injection, schedule: Q01DX005 (ip), vehicle: saline with Tween-80
[14] = dose: 120.0 mg/kg/injection, schedule: Q01DX005 (ip), vehicle: saline with Tween-80
[15] = dose: 12.5 mg/kg/injection, schedule: Q01DX009 (ip), vehicle: saline with Tween-80
[16] = dose: 25.0 mg/kg/injection, schedule: Q01DX009 (ip), vehicle: saline with Tween-80
[17] = dose: 200.0 mg/kg/injection, schedule: Q01DX009 (ip), vehicle: Klucel (hydroxypropylcellulose) (HPC)
[18] = dose: 240.0 mg/kg/injection, schedule: Q01DX005 (ip), vehicle: saline with Tween-80

Q: What does the source list for CC1N=C(SCC(=O)c2ccc(F)cc2)N2C(C)N=C(SCC(=O)c3ccc(F)cc3)N12 (stereo not drawn)?
A: T/C [1]: 111 % of control; T/C (dose: 100.0 mg/kg/injection, schedule: Q01DX009 (ip), vehicle: saline): 111 % of control; T/C (dose: 200.0 mg/kg/injection, schedule: Q01DX009 (ip), vehicle: saline): 98 % of control

Q: For C=C(C)C(C(=O)OC(c1ccccc1)c1ccccc1)N1C(=O)C(NC(=O)COc2ccccc2)C1SSc1nc2ccccc2s1 (stereo not drawn), which T/C [2] is on record?
A: 94 % of control

Q: And the T/C [3]?
A: 89 % of control

Q: And the T/C [4]?
A: 93 % of control

Q: What does the source list for C[Si](C)(Cn1ccc(=O)n(C[Si](C)(C)c2ccccc2)c1=O)c1ccccc1?
A: T/C (dose: 81.0 mg/kg/injection, schedule: Q04DX002 (ip), vehicle: saline with Tween-80): 100 % of control; T/C (dose: 162.0 mg/kg/injection, schedule: Q04DX002 (ip), vehicle: saline with Tween-80): 104 % of control; T/C (dose: 324.0 mg/kg/injection, schedule: Q04DX002 (ip), vehicle: saline with Tween-80): 106 % of control

Q: How did the T/C (dose: 25.0 mg/kg/injection, schedule: Q04DX002 (ip), vehicle: saline with Tween-80) turn out when Clc1ccc2c(ccc3ccc(Cl)nc32)n1 was run?
A: 100 % of control

Q: And the T/C (dose: 50.0 mg/kg/injection, schedule: Q04DX002 (ip), vehicle: saline with Tween-80)?
A: 98 % of control

Q: What about the T/C (dose: 100.0 mg/kg/injection, schedule: Q04DX002 (ip), vehicle: saline with Tween-80) of the same compound?
A: 89 % of control

Q: Which T/C [5] does the source give for Cc1[nH]cnc1CSCCN=C(N)n1[nH]cc(C)c1=O here?
A: 111 % of control

Q: And the T/C [6]?
A: 100 % of control

Q: And the T/C [7]?
A: 99 % of control

Q: Which results are given for COC(=O)C(C)CP(=O)(OC)OC (stereo not drawn)?
A: T/C (dose: 50.0 mg/kg/injection, schedule: Q01DX005 (ip), vehicle: saline): 99 % of control; T/C (dose: 100.0 mg/kg/injection, schedule: Q01DX005 (ip), vehicle: saline): 97 % of control; T/C (dose: 200.0 mg/kg/injection, schedule: Q01DX005 (ip), vehicle: saline): 99 % of control

Q: CCOC(=O)CC(C)=NCCN=C(C)CC(=O)OCC was tested. Which T/C [8] did it give?
A: 104 % of control

Q: What about the T/C [9] of the same compound?
A: 106 % of control

Q: And the T/C (dose: 200.0 mg/kg/injection, schedule: Q01DX009 (ip), vehicle: saline with Tween-80)?
A: 111 % of control

Q: Which T/C (dose: 12.5 mg/kg/injection, schedule: Q01DX009 (ip), vehicle: Klucel (hydroxypropylcellulose) (HPC)) does the source give for CCCCCCC/C=C/C(=O)OC1C(OC2C(OC(CCCCCCC)CC(=O)OC(CCCCCCC)CC(=O)O)OC(C)C(O)C2O)OC(C)C(O)C1O (stereo not drawn) here?
A: 102 % of control and 89 % of control

Q: What about the T/C [10] of the same compound?
A: 98 % of control and 120 % of control and 87 % of control

Q: And the T/C [11]?
A: 120 % of control and 95 % of control (2×)

Q: What about the T/C [12] of the same compound?
A: 116 % of control

Q: How did the T/C (dose: 100.0 mg/kg/injection, schedule: Q01DX001 (ip), vehicle: saline) turn out when Cc1cc2c(cc1C)C(=O)C(CN1CCCCC1)CO2 (stereo not drawn) was run?
A: 107 % of control

Q: What about the T/C (dose: 200.0 mg/kg/injection, schedule: Q01DX001 (ip), vehicle: saline) of the same compound?
A: 104 % of control

Q: How did the T/C (dose: 50.0 mg/kg/injection, schedule: Q01DX005 (ip), vehicle: Klucel (hydroxypropylcellulose) (HPC)) turn out when CN1CC(C(=O)NC2(C)OC3(O)C4CCCN4C(=O)C(Cc4ccccc4)N3C2=O)C=C2c3cccc4[nH]cc(c34)CC21 (stereo not drawn) was run?
A: 91 % of control

Q: What about the T/C (dose: 100.0 mg/kg/injection, schedule: Q01DX005 (ip), vehicle: Klucel (hydroxypropylcellulose) (HPC)) of the same compound?
A: 87 % of control

Q: And the T/C (dose: 200.0 mg/kg/injection, schedule: Q01DX005 (ip), vehicle: Klucel (hydroxypropylcellulose) (HPC))?
A: 102 % of control

Q: How did the T/C (dose: 1.56 mg/kg/injection, schedule: Q01DX005 (ip), vehicle: saline) turn out when CN(C)CC(CN(C)C)C(=O)/C=C/c1ccc(O)cc1 was run?
A: 105 % of control

Q: What about the T/C (dose: 3.12 mg/kg/injection, schedule: Q01DX005 (ip), vehicle: saline) of the same compound?
A: 114 % of control

Q: What about the T/C (dose: 6.25 mg/kg/injection, schedule: Q01DX005 (ip), vehicle: saline) of the same compound?
A: 114 % of control

Q: For COc1ccc(S(=O)(=O)N/N=C\c2cc([N+](=O)[O-])ccc2O)c(OC)c1OC, which T/C [2] is on record?
A: 107 % of control

Q: And the T/C [3]?
A: 101 % of control

Q: What about the T/C [4] of the same compound?
A: 94 % of control

Q: Which T/C [13] does the source give for O=C(Nc1ccc(Cl)cc1)Nc1nnc2ncc3c(n12)CCCCCCCCCC3 here?
A: 102 % of control

Q: And the T/C [14]?
A: 87 % of control

Q: What does the source list for O=C1CSC(=S)N1c1ccc(I)cc1?
A: T/C (dose: 50.0 mg/kg/injection, schedule: Q01DX009 (ip), vehicle: suspension in saline): 101 % of control; T/C (dose: 100.0 mg/kg/injection, schedule: Q01DX009 (ip), vehicle: suspension in saline): 101 % of control; T/C (dose: 200.0 mg/kg/injection, schedule: Q01DX009 (ip), vehicle: suspension in saline): 114 % of control

Q: With Clc1ccc(N=Cc2cccs2)cc1 as the compound, how does the T/C (dose: 3.13 mg/kg/injection, schedule: Q01DX009 (ip), vehicle: saline with Tween-80) read?
A: 100 % of control

Q: And the T/C (dose: 6.25 mg/kg/injection, schedule: Q01DX009 (ip), vehicle: saline with Tween-80)?
A: 88 % of control

Q: And the T/C [15]?
A: 90 % of control

Q: And the T/C [16]?
A: 101 % of control

Q: And the T/C [11]?
A: 110 % of control

Q: And the T/C [12]?
A: 100 % of control

Q: What about the T/C [17] of the same compound?
A: 100 % of control

Q: Which T/C [2] does the source give for Cn1cc(N)c2ccccc2c1=O here?
A: 103 % of control

Q: How did the T/C [15] turn out when CN(C)CCCO[Si](C)(c1ccccc1)c1ccc(F)cc1 (stereo not drawn) was run?
A: 105 % of control

Q: What about the T/C [16] of the same compound?
A: 101 % of control

Q: What about the T/C [8] of the same compound?
A: 110 % of control and 97 % of control

Q: What about the T/C [9] of the same compound?
A: 86 % of control

Q: Which results are given for CC(/C=N\N=C(N)N)=N/N=C(N)N?
A: T/C (dose: 14.6 mg/kg/injection, schedule: Q01DX009 (ip), vehicle: saline): 100 % of control; T/C (dose: 22.0 mg/kg/injection, schedule: Q01DX009 (ip), vehicle: saline): 120 % of control

Q: What does the source list for CC(C)c1cccc(C(C)C)c1NC(=O)Nc1ccc(Cl)cc1Cl?
A: T/C [13]: 114 % of control; T/C [14]: 104 % of control; T/C [18]: 116 % of control

Q: Which results are given for Cc1cccc(NN=O)n1?
A: T/C (dose: 1.5 mg/kg/injection, schedule: Q01DX009 (ip), vehicle: water): 98 % of control; T/C (dose: 1.56 mg/kg/injection, schedule: Q01DX009 (ip), vehicle: water): 99 % of control; T/C (dose: 3.0 mg/kg/injection, schedule: Q01DX009 (ip), vehicle: water): 107 % of control; T/C (dose: 3.12 mg/kg/injection, schedule: Q01DX009 (ip), vehicle: water): 115 % of control; T/C (dose: 6.25 mg/kg/injection, schedule: Q01DX009 (ip), vehicle: water): 120 % of control; T/C (dose: 25.0 mg/kg/injection, schedule: Q01DX009 (ip), vehicle: water): 163 % of control

Q: For S=C(Nc1ccc(Cl)c(Cl)c1)N1c2ccccc2-n2cccc2C1c1cccnc1 (stereo not drawn), which T/C [10] is on record?
A: 115 % of control

Q: What about the T/C [11] of the same compound?
A: 113 % of control

Q: What about the T/C [12] of the same compound?
A: 113 % of control

Q: What about the T/C [17] of the same compound?
A: 121 % of control

Q: How did the T/C [5] turn out when CN(CC#CCN(C)C1=NC(=O)CC1)C1=NC(=O)CC1 was run?
A: 92 % of control

Q: And the T/C [6]?
A: 94 % of control

Q: And the T/C [7]?
A: 100 % of control

Q: For CCCCCCCCCCCCCCCC[N+]1([O-])CCCC1, which T/C [1] is on record?
A: 102 % of control

Q: Which results are given for N#CC1=C(Nc2ccccc2Cl)SC(c2ccccc2O)NC1=O (stereo not drawn)?
A: T/C [13]: 103 % of control; T/C [14]: 102 % of control; T/C [18]: 96 % of control

Q: With O=C1NC(=O)C2(OC3c4ccccc4C=NN3C3=C2C(=O)CC3)C(=O)N1 (stereo not drawn) as the compound, how does the T/C (dose: 100.0 mg/kg/injection, schedule: Q01DX001 (ip), vehicle: saline with Tween-80) read?
A: 101 % of control

Q: What about the T/C (dose: 200.0 mg/kg/injection, schedule: Q01DX001 (ip), vehicle: saline with Tween-80) of the same compound?
A: 100 % of control

Q: What about the T/C (dose: 400.0 mg/kg/injection, schedule: Q01DX001 (ip), vehicle: saline with Tween-80) of the same compound?
A: 104 % of control

Q: For NOCc1cccc(CON)c1, which T/C [8] is on record?
A: 91 % of control

Q: What does the source list for CCCCCCCCCCCCCCCCCC(=O)[O][Pb]([CH3])([CH3])[CH3]?
A: T/C (dose: 1.25 mg/kg/injection, schedule: Q01DX009 (ip), vehicle: Klucel (hydroxypropylcellulose) (HPC)): 107 % of control; T/C (dose: 2.5 mg/kg/injection, schedule: Q01DX009 (ip), vehicle: Klucel (hydroxypropylcellulose) (HPC)): 113 % of control; T/C (dose: 5.0 mg/kg/injection, schedule: Q01DX009 (ip), vehicle: Klucel (hydroxypropylcellulose) (HPC)): 101 % of control; T/C (dose: 6.25 mg/kg/injection, schedule: Q04DX003 (ip), vehicle: Klucel (hydroxypropylcellulose) (HPC)): 94 % of control; T/C (dose: 12.5 mg/kg/injection, schedule: Q04DX003 (ip), vehicle: Klucel (hydroxypropylcellulose) (HPC)): 111 % of control; T/C (dose: 25.0 mg/kg/injection, schedule: Q04DX003 (ip), vehicle: Klucel (hydroxypropylcellulose) (HPC)): 92 % of control

Q: How did the T/C [2] turn out when CCC1=C(C(C)OCCO)C(=O)c2ccccc2C1=O (stereo not drawn) was run?
A: 96 % of control

Q: What about the T/C [3] of the same compound?
A: 100 % of control

Q: And the T/C [4]?
A: 94 % of control
